Test results from patent EP4786466A1, “QUINAZOLINE DERIVATIVE, SALT THEREOF, AND PHARMACEUTICAL COMPOSITION COMPRISING SAME AS ACTIVE INGREDIENT” (Korea Research Institute of Chemical Technology, priority 2023, dated 2025).
Read-outs that look alike come from different tables or passages of the source.

How the values were obtained:
[1] = system: MCF7 breast cancer cell lines; experiment: Cell viability analysis, WST-8 assay, MCF7; conditions: for Cell viability (%) WST-8, MCF7 (1 µM): compound 1 µM, 72 hours; for IC50: read-out: IC50(nM) Cell viability (MCF7)
Experimental: (§1) MCF7 breast cancer cell lines and MCF10A normal breast cancer cell lines were treated with serial dilutions of the compounds of the present invention ranging from 1 µM to 15.63 nM for 72 hours. Cell viability was measured by the WST-8 assay (Cyto XTM cell viability assay kit; LPS solution, Daejeon, Korea) according to the manufacturer's instructions.

[2] = system: MCF10A normal breast cancer cell lines; experiment: Cell viability analysis, WST-8 assay, MCF10A; conditions: compound 1 µM, 72 hours
Experimental: as §1

pENSA = pENSA level by immunofluorescence (described method: in vitro kinase analysis with GST-tag-MASTL and His-tag-ENSA); format: cell-based; conditions: for pENSA (%) Immunofluor ecense (1 µM): compound 1 µM
How it was run: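 In vitro kinase reaction using recombinant GST-tagged MASTL with His-tagged ENSA as substrate; phosphorylated ENSA (pENSA) serves as read-out of MASTL activity. Cell lines named: MCF7 breast cancer and MCF10A.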

[3] = molecular target: T1, Recombinant GST-TAG-MASTL (Homo sapiens, UniProt Q96GX5); experiment: HTRF-based kinase assay (HTRF KinEASE assay kit); format: biochemical; conditions: for activity at 1 µM: read-out: MASTL activity (%) HTRF (1 µM)
T1 construct: GST; purchased Thermo Fisher Scientific
T1 sequence (Q96GX5 1-879): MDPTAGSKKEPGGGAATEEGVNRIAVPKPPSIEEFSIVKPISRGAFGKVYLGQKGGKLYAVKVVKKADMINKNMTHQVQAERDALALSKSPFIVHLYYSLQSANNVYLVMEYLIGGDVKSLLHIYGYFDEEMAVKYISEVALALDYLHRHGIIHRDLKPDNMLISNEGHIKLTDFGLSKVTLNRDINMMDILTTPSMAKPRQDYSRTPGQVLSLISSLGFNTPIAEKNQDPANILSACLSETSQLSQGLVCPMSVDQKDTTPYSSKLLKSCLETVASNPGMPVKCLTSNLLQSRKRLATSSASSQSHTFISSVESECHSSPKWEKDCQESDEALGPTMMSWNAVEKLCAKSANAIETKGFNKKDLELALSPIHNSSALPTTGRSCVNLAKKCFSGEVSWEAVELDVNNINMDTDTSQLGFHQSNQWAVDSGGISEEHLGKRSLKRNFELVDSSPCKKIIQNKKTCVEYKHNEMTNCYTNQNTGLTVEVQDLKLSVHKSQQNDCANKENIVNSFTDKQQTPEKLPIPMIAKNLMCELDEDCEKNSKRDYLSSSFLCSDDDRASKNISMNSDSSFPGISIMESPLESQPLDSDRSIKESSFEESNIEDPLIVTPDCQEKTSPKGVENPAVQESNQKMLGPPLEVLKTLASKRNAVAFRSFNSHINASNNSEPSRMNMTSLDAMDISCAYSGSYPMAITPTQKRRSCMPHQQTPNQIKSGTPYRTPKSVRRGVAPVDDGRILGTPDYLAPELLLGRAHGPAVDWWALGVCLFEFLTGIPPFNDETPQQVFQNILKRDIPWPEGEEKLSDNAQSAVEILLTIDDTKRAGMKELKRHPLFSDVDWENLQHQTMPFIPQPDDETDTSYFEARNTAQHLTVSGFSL
Source text: Recombinant GST-TAG-MASTL (Thermo Fisher Scientific, MA, USA) was used for HTRF-based kinase assays. The HTRF KinEASE assay kit (CisBio, MA, USA) was used according to the manufacturer's instructions.

MASTL = molecular target: T2, MASTL (Homo sapiens, UniProt Q96GX5); conditions: reported MASTL inhibitors, background art; cited from earlier work
T2 sequence (Q96GX5 1-879): T1 sequence (Q96GX5 1-879)

[4] = Cell viability analysis, WST-8 assay, MCF10A; conditions: human, mcf10a cells
Experimental: as §1

[5] = system: MCF10A normal breast cell lines; experiment: Cell viability analysis, WST-8 assay, MCF10A; conditions: read-out: IC50(nM) Cell viability (MCF10A)
Experimental: as §1

in vitro = conditions: human, mcf10a cells
Experimental: as §1

[6] = HTRF, read-out: IC50(nM) MASTL activity

SMILES | Cell viability (%) WST-8, MCF7 (1 µM) [1] [%] | Cell viability (%) WST-8, MCF10A (1 µM) [2] [%] | pENSA (%) Immunofluor ecense (1 µM) (pENSA) [%] | MASTL activity (%) HTRF (1 µM) ([3]; compound 1 µM) [%] | IC50 (pENSA; read-out: IC50(nM) pENSA) [nM] | IC50 [3, 6] [nM] | IC50 ([1]; MCF7, WST-8, 72 hours) [nM] | IC50 ([5]; MCF10A, WST-8, 72 hours) [nM] | also measured
COc1ccc(CNc2nc(Nc3cc(C4CC4)[nH]n3)c3ccccc3n2)cc1 [4ad, M^4-(5-cyclopropyl-1G-pyrazol-3-yl)-M^2-(4-methoxybenzyl)quinazoline-2,4-diamine] | 96.4 | 96.0 | 143 | 65.7 |  |  |  |  | 
Clc1ccc(Nc2cccc(-c3cn[nH]c3)c2)cc1 [GKI-1] |  |  |  |  |  |  |  |  | IC50 (MASTL): 4900 nM
O=C(Nc1nc2ccccc2[nH]1)c1cccc(-n2cccc2)c1 [MKI-1] |  |  |  |  |  |  |  |  | IC50 (MASTL): 9900 nM
N#CCc1ccc(Nc2nc(Nc3cc(C4CC4)[nH]n3)c3ccccc3n2)cc1 [compound 3a, 2-(4-((4-((5-cyclopropyl-1G-pyrazol-3-yl)amino)quinazolin-2-yl)amino)phenyl)acetonitrile] |  |  | 5.1 |  | 100 | 178 |  |  | viability at 1 µM ([1]; Homo sapiens, MCF7, 72 h, read-out: Cell viability (%) WST-8, MCF7 (1 µM)): 0.05%; IC50 ([1]; Homo sapiens, MCF7, 72 h): 207 nM; viability at 1 µM [4]: 1.6%; IC50 ([5]; Homo sapiens, MCF-10A, 72 h): 29 nM; activity at 1 µM ([3]; compound 1 µM): 20.8%
c1ccc2c(Nc3cc(C4CC4)[nH]n3)nc(N3CC4CCC3CN4)nc2c1 (centres unmarked) [compound 20, 2-(2,5-diazabicyclo[2.2.2]octan-2-yl)-M-(5-cyclopropyl-1G-pyrazol-3-yl)quinazolin-4-amine trifluoroacetic acid] |  |  | 30.9 |  | 66.5 |  |  |  | viability at 1 µM ([1]; Homo sapiens, MCF7, 72 h, read-out: Cell viability (%) WST-8, MCF7 (1 µM), compound 1 µM, 72 hours): 5.5%; IC50 ([1]; Homo sapiens, MCF7, 72 h): 150 nM; IC50 ([5]; Homo sapiens, MCF-10A, 72 h): 131 nM; IC50 [3]: 194 nM; activity at 1 µM [3]: 36.5%; viability at 1 µM (in vitro): 3.9%
CC(C)S(=O)(=O)N1CC2CCC1CN2c1nc(Nc2cc(C3CC3)[nH]n2)c2ccccc2n1 (centres unmarked) [compound 24a, M (5-cyclopropyl-1G-pyrazol-3-yl)-2-(5-(isopropylsulfonyl)-2,5-diazabicyclo[2.2.2]octan-2-yl)quinazolin-4-amine] | 4.8 | 15.7 | 14 | 29.9 | 263 | 180 | 954 | 420 | 
O=S(=O)(C1CCCCC1)N1CC2CCC1CN2c1nc(Nc2cc(C3CC3)[nH]n2)c2ccccc2n1 (centres unmarked) [compound 24b, 2-(5-(cyclohexylsulfonyl)-2,5-diazabicyclo[2.2.2]octan-2-yl)-M-(5-cyclopropyl-1G-pyrazol-3-yl)quinazolin-4-amine] | 90.7 | 26.5 | 36 | 24.8 | 770 | 198 |  | 684 | 
O=S(=O)(c1cccs1)N1CC2CCC1CN2c1nc(Nc2cc(C3CC3)[nH]n2)c2ccccc2n1 (centres unmarked) [compound 24d, M-(5-cyclopropyl-1G-pyrazol-3-yl)-2-(5-(thiophen-2-ylsulfonyl)-2,5-diazabicyclo[2.2.2]octan-2-yl)quinazolin-4-amine] | 6.4 | 4.9 | 2.6 | 32.9 |  | 597 | 626 | 210 | IC50 (pENSA; unit µM, read-out: IC50 pENSA): 1900 nM
N#Cc1ccccc1S(=O)(=O)N1CC2CCC1CN2c1nc(Nc2cc(C3CC3)[nH]n2)c2ccccc2n1 (centres unmarked) [compound 24e, 2-((5-(4-((5-cyclopropyl-1G-pyrazol-3-yl)amino)quinazolin-2-yl)-2,5-diazabicyclo[2.2.2]octan-2-yl)sulfonyl)benzonitrile] | 2.2 | 2.8 | 4.1 | 10.8 |  | 213 | 543 | 184 | IC50 (pENSA; unit µM, read-out: IC50 pENSA): 1900 nM
